From US9433663B2, “Mobilization of hematopoietic stem cells” (Children's Hospital Medical Center, priority 2008, dated 2016)

Key:
donor cell engraftment = assay: Example 9 mobilization as preparative regimen for HSC transplantation; type: in vivo, mice; settings: compared to the non-mobilization control
Description: If the microenvironmental niches are vacated after CASIN exposure, donor HSCs might engraft better in hosts treated with a mobilizing agent such as CASIN compared with non-mobilized controls. To test this, bone marrow transplantation is performed on recipient mice which are pre-conditioned with CASIN. […] Additionally, AMD3100, G-CSF, and control medium are used in parallel with CASIN as controls.
Briefly, mice are treated with CASIN, and 4×10^7 donor bone marrow cells from congenic mouse strain are transplanted 48 h later. Donor cell engraftment is assayed at 3 months using the congenic markers by flow cytometry.
Additionally, multiple cycles of mobilization with CASIN may increase the number of available niches. Therefore, this study investigates whether repeated cycles of CASIN mobilization, each followed by donor cell transplantation, could result in increased engraftment. Briefly, mice receive one weekly injection of CASIN on 3 consecutive weeks and 4×10^7 donor marrow cells are transplanted 48 hours after each mobilization. Control animals also received 3 weekly infusions of 4×10^7 donor marrow cells but no CASIN. And the donor engraftment is assayed at 3 months after transplantation as well.

C57Bl/6 mice = assay: mobilization of colony-forming progenitors to peripheral blood, CFU-C assay; type: in vivo; settings: C57Bl/6 mice, FIG. 8b
Description: Whether CASIN administration can induce mobilization of HSC/Ps to peripheral blood of C57Bl/6 mice, mimicking the phenotype observed in Cdc42 conditional knockout mice, was evaluated. First of all, mobilization of hematopoietic progenitor cells was examined by CFU-C assays functionally (FIG. 3a). […] Secondarily, to further explore the ability of CASIN to mobilize LT-HSC which is crucial for long-term repopulation of the mobilized cells, serial transplantations were carried out, where 20 million PB from CASIN-mobilized C57Bl/6 mice was transplanted into primary recipient of NOD/SCID mice, and subsequent secondary and tertiary transplants were finished as well using prior BMs (FIG. 3c). Donor chimerisms were assessed by using H2K^b congenic marker which is positive for donors of C57Bl/6 strain and negative for recipients of NOD/SCID strain. […] Therefore, the studies show CASIN can efficiently mobilize colony-forming hematopoietic progenitors and LT-HSCs with self-renewal and multi-lineage differentiation capacity. Thirdly, to further investigate the potential of CASIN to vacate the BM niche after mobilization, six-color staining of the BM cells was performed from C57Bl/6 mice with or without CASIN treatment followed by FACS analysis. […] Therefore, a transient decrease in BM and a concomitant increase in peripheral organs of HSCs would be beneficial to facilitating the subsequent HSC transplantation.
To determinate the hematopoietic progenitor content in the PB of mobilized C57Bl/6 mice, colony-forming unit assay was performed as described previously. Briefly, 200 ul PB was plated in triplicate into methylcellulose (MethocultM3434; StemCell Technology, Vancouver, BC, Canada). Colonies were then counted 7 d later.

Fancc−/− mice [1] = assay: Example 10 preparative regimen for BM transplantation in Fancc−/− mice; type: in vivo; settings: preconditioning before BM transplantation
Description: Four preparative regimens before BM transplantation on Fancc−/− mice are used to evaluate the capacity of CASIN as a preconditioning agent: (1) Control group; (2) CY group: a single dose of 40 mg/kg CY intraperitoneally; (3) CASIN group: 2.5 mg/Kg; (4) combination of CASIN and CY: one injection of CASIN is given in combination with reduced doses of CY.
Fancc−/− mice are preconditioned with each of these four regimens, and 4×10^7 BM cells from congenic strain mice are transplanted into preconditioned mice by tail vein injection. Mice that underwent transplantation are bled every four weeks to monitor the chimerism of donor-derived cells in PB. And at 3 m, the mice are sacrificed to evaluate the engraftment of donor-derived cells in BM.

Fancc−/− mice [2] = assay: Example 10 HSC/P mobilization in Fancc−/− mice; settings: mouse, in vivo
Description: The effects of CASIN on HSC/P mobilization in Fancc−/− mice are investigated under four groups in parallel with WT mice: (1) Control group; (2) G-CSF group: 2.5 μg G-CSF per mouse, twice a day for 4 d120; (3) CASIN group: 2.5 mg/Kg; (4) combination of CASIN and G-CSF: one injection of CASIN is given 40 h before the end of 4 d G-CSF administration.
Fancc−/− or WT mice are mobilized with regimens corresponding to the four experimental groups. Then PB are harvested by cardiac puncture. Phenotypically, the absolute number and percentage of HSC/Ps in PB after mobilization are determined as those of LSK (Lin− Sca+ c-Kit+) cells by flow cytometry. Functionally, CFU-C assay is performed in triplicate for each mouse by using PB of mice from different experimental groups, and CFU-GM, CFU-GEMM, BFU-E, and CFU-E are distinguished by morphology and using cytokine combinations. Furthermore, the long-term repopulation capacity of the mobilized HSCs is evaluated using a competitive repopulating assay and subsequent secondary transplantation as discussed above.

Molecule | engraftment of donor cells in pre-conditioned recipients (donor cell engraftment) | mobilization of colony-forming progenitors (C57Bl/6 mice) | repopulation and engraftment of donor derived cells in PB and BM of Fancc−/− recipient mice (Fancc−/− mice [1]) | mobilization of HSC/Ps (LSK cells, progenitor colonies) in Fancc−/− mice (Fancc−/− mice [2])
c1cc(CN2CCCNCCNCCCNCC2)ccc1CN1CCCNCCNCCCNCC1 [AMD3100, reference compound] | significantly increased engraftment of donor cells | can mobilize colony-forming progenitors | – | –
O=P1(N(CCCl)CCCl)NCCCO1 (stereo not drawn) [CY, reference compound] | – | – | comparable engraftment and repopulation | –
G-CSF: growth factor, currently available HSPC mobilization agent (protein, UniProt P09919 31-207, looked up) Granulocyte …: TPLGPASSLPQSFLLKCLEQVRKIQGDGAALQEKLVSECATYKLCHPEELVLLGHSLGIPWAPLSSCPSQALQLAGCLSQLHSGLFLYQGLLQALEGISPELGPTLDTLQLDVADFATTIWQQMEELGMAPALQPTQGAMPAFASAFQRRAGGVLVASHLQSFLEVSYRVLRHLAQP | significantly increased engraftment of donor cells | can mobilize colony-forming progenitors | – | less effective mobilizer of HSC/Ps in Fancc−/− mice than in WT mice
